Test results taken from ChEMBL document CHEMBL1681651, “A broad spectrum anticancer nucleoside with selective toxicity against human colon cells in vitro” (2011).

Assays:
Assay type in all cases: functional
[1] = test system: EKVX; assay: Growth inhibition of human EKVX cells assessed as cell growth at 1 mM after 48 hrs by SRB assay; settings: read-out: Activity
[2] = test system: NCI-H460; assay: Growth inhibition of human NCI-H460 cells assessed as cell growth at 100 uM after 48 hrs by SRB assay; settings: NCI-H460, 48 h, read-out: Activity
[3] = test system: BT-549; assay: Growth inhibition of human BT549 cells assessed as cell growth at 1 mM after 48 hrs by SRB assay; settings: BT-549, 48 h, read-out: Activity
[4] = test system: SK-MEL-2; assay: Growth inhibition of human SK-MEL-2 cells assessed as cell growth at 1 uM after 48 hrs by SRB assay; settings: SK-MEL-2, 48 h, read-out: Activity
[5] = test system: SN12C; assay: Growth inhibition of human SN12C cells assessed as cell growth at 100 uM after 48 hrs by SRB assay; settings: read-out: Activity
[6] = test system: OVCAR-4; assay: Growth inhibition of human OVCAR4 cells assessed as cell growth at 1 uM after 48 hrs by SRB assay; settings: OVCAR-4, 48 h, read-out: Activity
[7] = test system: HCT-116; assay: Growth inhibition of human HCT116 cells assessed as cell growth at 1 mM after 48 hrs by SRB assay; settings: HCT-116, 48 h, read-out: Activity
[8] = test system: NCI-H226; assay: Growth inhibition of human NCI-H226 cells assessed as cell growth at 1 mM after 48 hrs by SRB assay; settings: NCI-H226, 48 h, read-out: Activity
[9] = test system: SNB-19; assay: Growth inhibition of human SNB19 cells assessed as cell growth at 1 uM after 48 hrs by SRB assay; settings: SNB-19, 48 h, read-out: Activity
[10] = test system: RXF 393; assay: Growth inhibition of human RXF393 cells assessed as cell growth at 1 uM after 48 hrs by SRB assay; settings: RXF 393, 48 h, read-out: Activity
[11] = test system: DU-145; assay: Growth inhibition of human DU145 cells assessed as cell growth at 10 uM after 48 hrs by SRB assay; settings: DU-145, 48 h, read-out: Activity
[12] = test system: HOP-92; assay: Growth inhibition of human HOP92 cells assessed as cell growth at 0.1 uM after 48 hrs by SRB assay; settings: HOP-92, 48 h, read-out: Activity
[13] = test system: Malme-3M; assay: Growth inhibition of human MALME-3M cells assessed as cell growth at 100 uM after 48 hrs by SRB assay; settings: read-out: Activity
[14] = test system: SNB-75; assay: Growth inhibition of human SNB75 cells assessed as cell growth at 0.1 uM after 48 hrs by SRB assay; settings: SNB-75, 48 h, read-out: Activity
[15] = test system: SF-268; assay: Growth inhibition of human SF268 cells assessed as cell growth at 100 uM after 48 hrs by SRB assay; settings: SF-268, 48 h, read-out: Activity
[16] = test system: SK-MEL-5; assay: Growth inhibition of human SK-MEL-5 cells assessed as cell growth at 1 uM after 48 hrs by SRB assay; settings: SK-MEL-5, 48 h, read-out: Activity
[17] = test system: MDA-MB-435; assay: Growth inhibition of human MDA-MB-435 cells assessed as cell growth at 1 uM after 48 hrs by SRB assay; settings: MDA-MB-435, 48 h, read-out: Activity
[18] = test system: NCI-H460; assay: Growth inhibition of human NCI-H460 cells assessed as cell growth at 1 mM after 48 hrs by SRB assay; settings: NCI-H460, 48 h, read-out: Activity
[19] = test system: T47D; assay: Growth inhibition of human T47D cells assessed as cell growth at 0.1 uM after 48 hrs by SRB assay; settings: read-out: Activity
[20] = test system: NCI-H522; assay: Growth inhibition of human NCI-H522 cells after 48 hrs by […] growth inhibition assay; settings: NCI-H522, 48 h
[21] = test system: NCI-H460; assay: Growth inhibition of human NCI-H460 cells assessed as cell growth at 10 uM after 48 hrs by SRB assay; settings: NCI-H460, 48 h, read-out: Activity
[22] = test system: SF-539; assay: Growth inhibition of human SF539 cells assessed as cell growth at 100 uM after 48 hrs by SRB assay; settings: SF-539, 48 h, read-out: Activity
[23] = test system: MDA-MB-231; assay: Growth inhibition of human MDA-MB-231 cells assessed as cell growth at 100 uM after 48 hrs by SRB assay; settings: MDA-MB-231, 48 h, read-out: Activity
[24] = test system: COLO 205; assay: Growth inhibition of human COLO205 cells assessed as cell growth at 100 uM after 48 hrs by SRB assay; settings: COLO 205, 48 h, read-out: Activity
[25] = test system: RXF 393; assay: Growth inhibition of human RXF393 cells assessed as cell growth at 100 uM after 48 hrs by SRB assay; settings: RXF 393, 48 h, read-out: Activity
[26] = test system: UACC-62; assay: Growth inhibition of human UACC62 cells assessed as cell growth at 100 uM after 48 hrs by SRB assay; settings: UACC-62, 48 h, read-out: Activity
[27] = test system: HOP-92; assay: Growth inhibition of human HOP92 cells assessed as cell growth at 100 uM after 48 hrs by SRB assay; settings: HOP-92, 48 h, read-out: Activity
[28] = test system: LOX IMVI; assay: Growth inhibition of human LOXIMVI cells assessed as cell growth at 1 mM after 48 hrs by SRB assay; settings: read-out: Activity
[29] = test system: IGROV-1; assay: Growth inhibition of human IGROV1 cells assessed as cell growth at 1 uM after 48 hrs by SRB assay; settings: IGROV-1, 48 h, read-out: Activity
[30] = test system: KM12; assay: Growth inhibition of human KM12 cells assessed as cell growth at 1 uM after 48 hrs by SRB assay; settings: KM12, 48 h, read-out: Activity
[31] = test system: SK-OV-3; assay: Growth inhibition of human SKOV3 cells assessed as cell growth at 100 uM after 48 hrs by SRB assay; settings: SK-OV-3, 48 h, read-out: Activity
[32] = test system: CCRF-CEM; assay: Growth inhibition of human CCRF-CEM cells assessed as cell growth at 100 uM after 48 hrs by SRB assay; settings: read-out: Activity
[33] = test system: UO-31; assay: Growth inhibition of human UO31 cells assessed as cell growth at 0.1 uM after 48 hrs by SRB assay; settings: UO-31, 48 h, read-out: Activity
[34] = test system: HT-29; assay: Growth inhibition of human HT-29 cells assessed as cell growth at 10 uM after 48 hrs by SRB assay; settings: HT-29, 48 h, read-out: Activity
[35] = test system: PC-3; assay: Growth inhibition of human PC3 cells assessed as cell growth at 10 uM after 48 hrs by SRB assay; settings: PC-3, 48 h, read-out: Activity
[36] = test system: HL-60(TB); assay: Growth inhibition of human HL-60(TB) cells assessed as cell growth at 10 uM after 48 hrs by SRB assay; settings: HL-60, 48 h, read-out: Activity
[37] = test system: K562; assay: Growth inhibition of human K562 cells assessed as cell growth at 10 uM after 48 hrs by SRB assay; settings: K562, 48 h, read-out: Activity

For `CNC(=O)NC[C@H]1O[C@@H](n2cnc3c(NC(=O)Nc4ccccc4)ncnc32)[C@H](O[Si](C)(C)C(C)(C)C)[C@@H]1O[Si](C)(C)C(C)(C)C`, the growth at 1000 µM [1] was -9%, the growth at 100 µM [2] was -74% and the growth at 1000 µM [3] was -36%. For the same compound, the growth at 1 µM [4] was 110%, the growth at 100 µM [5] was -87% and the growth at 1 µM [6] was 108%. It also gave a growth at 1000 µM [7] of -100%, a growth at 1000 µM [8] of -48% and a growth at 1 µM [9] of 100%. The growth at 1 µM [10] was 73%, the growth at 10 µM [11] was 109% and the growth at 0.1 µM [12] was 85%. For the same compound, the growth at 100 µM [13] was -1%, the growth at 0.1 µM [14] was 94% and the growth at 100 µM [15] was 8%. For the same compound, the growth at 1 µM [16] was 98%, the growth at 1 µM [17] was 102% and the growth at 1000 µM [18] was -75%. The growth at 0.1 µM [19] was 101%, the GI50 ([20]; read-out: GI50) was 2.39 µM and the CC50 ([20]; read-out: LC50 (the source's name)) was over 100 µM. The TGI ([20]; read-out: TGI) was 7.14 µM, the GI50 ([20]; read-out: pGI50 (converted)) was 2.4 µM and the CC50 ([20]; read-out: pLC50 (the source's name) (converted)) was over 100 µM. For the same compound, the TGI ([20]; read-out: pTGI (converted)) was 7.08 µM, the growth at 10 µM [21] was 88% and the growth at 100 µM [22] was 7%. For the same compound, the growth at 100 µM [23] was -29%, the growth at 100 µM [24] was -95% and the growth at 100 µM [25] was -73%. The growth at 100 µM [26] was 23%, the growth at 100 µM [27] was -28% and the growth at 1000 µM [28] was -77%. The growth at 1 µM [29] was 99%, the growth at 1 µM [30] was 111% and the growth at 100 µM [31] was 39%. It also gave a growth at 100 µM [32] of 9%, a growth at 0.1 µM [33] of 87% and a growth at 10 µM [34] of 107%. For the same compound, the growth at 10 µM [35] was 83%.
`CNC(=O)OC[C@H]1O[C@@H](n2cnc3c(NC(=O)Nc4ccccc4)ncnc32)[C@H](O[Si](C)(C)C(C)(C)C)[C@@H]1O[Si](C)(C)C(C)(C)C` showed a growth at 10 µM [11] of 106%, a growth at 10 µM [36] of 113% and a growth at 10 µM [37] of 75.4%. The growth at 10 µM [21] was 103%, the growth at 10 µM [34] was 81.3% and the growth at 10 µM [35] was 58.9%.
